Results published in patent US9006454B2, “Dihydroorotate dehydrogenase inhibitors” (Merck Serono S.A., priority 2009, dated 2015).

Tests used:
DHODH = DHODH (Homo sapiens (Human), UniProt Q02127); test: DHODH activity assay (coupled enzyme assay, DCIP reduction, absorbance at 610 nm); format: biochemical; conditions: for inhibition at 10 µM: compound at 10 uM, read-out: inh @ 10 uM hDHODH (%)
Protocol: The DHODH activity assay is a coupled enzyme assay in which oxidation of DHO and subsequent reduction of ubiquinone are stoichiometrically equivalent to the reduction of DCIP ([…]). The reduction of DCIP is accompanied by a loss of absorbance at 610 nm.
Buffer Preparation: 50 mM tris HCl, 150 mM KCl, and pH 8.0, 0.8% triton.
5 μL of Dimethyl sulfoxide or a compound of formula I in DMSO solution was added to the wells of a 96 well plate. Compounds of formula I were measured at 10 μM.
Protein along with buffer was added, so that the total volume including the DMSO was 87 μL. Compound and protein were incubated for half an hour at room temperature after mixing. 5 μL of 20 mM solution of L-Dihydroorotic acid, 5 μL of 2 mM solution of Decylubiquinone and 3 μL of 2 mM solution of 2,6-Dichloroindophenol sodium salt hydrate were added to the above solution (total assay volume 100 μL). The mixture was stirred for 2 min and absorbance was recorded at every 10 min at 610 nanometers.
Percent Inhibition is Calculated as Follows
Positive control contains DMSO, buffer, enzyme and substrates
No Enzyme reaction contains DMSO, buffer and substrates
IC50 determination: • A 2 mM DMSO stock of the compound of formula I to be examined was prepared. ⅓rd dilutions were made as follows:
5 μL of each stock of compound of formula I (solution indicated in column 4 of table) was used for each 100 μL assay. Therefore, 5 μL of the 2 mM stock provided 100 μL of 100 μM solution of compound of formula I, when made up with buffer, protein and substrate. See also: Ulrich et al. (2001) Eur. J. Biochem. 268, 1861-1868.

Jurkat cells = test: Measurement of cell proliferation (Jurkat cell), XTT assay; format: cell-based; conditions: Homo sapiens, Jurkat; compound at 1 uM; read-out: % inh Jurkat_cells @ 1 uM (%)
Protocol: See also Roehm, N et al [1991] An improved colorimetric assay for cell proliferation and viability utilizing the tetrazolium salt XTT. J. Immunol. Methods 142:257-265.
Culture Jurkat cells in T-25 flasks at a density of 0.2×10^6/ml 2-3 days before the day of experiment set up.
Centrifuge Jurkat T-cell suspension at 1200 rpm for 10 minutes and resuspend cells again in fresh RPMI medium with 10% FBS.
Count the cells and dilute suspension to a density of 2×10^6 cells/ml. Seed 50 μL of this suspension in each well of a 96 well plate (100,000 cells per well). Keep the edges of the plate empty to avoid evaporation.
Serially dilute DMSO stocks of compounds to get different concentrations for an EC50 curve. 50 μL of compound diluted in media (2× concentration required in well) is added to each well. DMSO concentration should be kept constant at 0.25-0.5% for all wells.
Typically, for all compounds with IC50<1 μM, compound concentration can start at 10 μM followed by half log dilutions for a total of 8-10 concentrations. Each concentration has to be tested in triplicate.
Include controls such as cells without compound (with same DMSO concentration as compound wells), and media control
Incubate the 96 well plate in a CO2 incubator at 37° C. for 72 hrs before determining cell viability using XTT assay
XTT assay: to each well, add 50 μL of 1 mg/ml XTT solution with 20 μl of PMS/mL. Read the plates after 2 hours at 465 nm using the spectrophotometer. XTT reading for media without cells is used as background reading.
Calculate % cell viability assuming that the cells without compound are 100% viable.
Plot % cell viability as a function of concentration and determine EC50 by using software such as Graph Pad Prism to fit the curve.

Sequence of DHODH (Q02127 whole entry): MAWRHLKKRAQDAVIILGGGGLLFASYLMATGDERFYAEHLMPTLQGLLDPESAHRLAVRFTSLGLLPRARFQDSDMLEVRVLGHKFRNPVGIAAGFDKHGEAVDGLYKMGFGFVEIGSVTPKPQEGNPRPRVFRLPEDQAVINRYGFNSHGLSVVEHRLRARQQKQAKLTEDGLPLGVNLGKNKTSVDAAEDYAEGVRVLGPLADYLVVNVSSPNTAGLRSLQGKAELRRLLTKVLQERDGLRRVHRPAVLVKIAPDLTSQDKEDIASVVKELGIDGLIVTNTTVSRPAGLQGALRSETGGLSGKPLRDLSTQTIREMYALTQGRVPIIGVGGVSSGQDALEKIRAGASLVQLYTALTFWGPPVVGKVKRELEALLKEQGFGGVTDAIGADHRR

SMILES | inhibition at 10 µM (DHODH) | inhibition at 1 µM (Jurkat cells) | IC50 (DHODH)
O=C(O)c1cccc2[nH]c(-c3ccc(Oc4ccccn4)cc3)nc12 [I70, 2-[4-(Pyridin-2-yloxy)-phenyl]-1H-benzoimidazole-4-carboxylic acid] | 58.6% | 14.6% | 
Cc1cc(C(=O)O)c2nc(-c3ccc(Oc4ccccn4)cc3)[nH]c2c1 [I71, 6-Methyl-2-[4-(pyridin-2-yloxy)-phenyl]-1H-benzoimidazole-4-carboxylic acid] | 75.5% | 28.3% | 4.38 µM
Cc1cc(C(=O)O)c2nc(-c3ccc(Oc4c(F)c(F)c(F)c(F)c4F)cc3)[nH]c2c1 [I72, 6-Methyl-2-(4-pentafluorophenyloxy-phenyl)-1H-benzoimidazole-4-carboxylic acid] | 38% | 9% | 
O=C(O)c1cccc2nc(-c3ccc(-c4ccccn4)cc3)[nH]c12 [I73, 2-(4-Pyridin-2-yl-phenyl)-3H-benzoimidazole-4-carboxylic acid] | 29.6% | 13.6% | 
Cc1cc(C(=O)O)c2[nH]c(-c3ccc(-c4ccccn4)cc3)nc2c1 [I74, 6-Methyl-2-(4-pyridin-2-yl-phenyl)-3H-benzoimidazole-4-carboxylic acid] | 56.6% | 18.4% | 
Cc1cc(C(=O)O)c2[nH]c(-c3ccc(-c4ccccc4)nc3)nc2c1 [I75, 6-Methyl-2-(6-phenyl-pyridin-3-yl)-3H-benzoimidazole-4-carboxylic acid] | 82.4% | 39.3% | 3.82 µM
Cc1cc(C(=O)O)c2[nH]c(-c3ccc(-c4c(F)cccc4F)cc3)nc2c1 [I76, 2-(2′,6′-Difluoro-biphenyl-4-yl)-6-methyl-3H-benzoimidazole-4-carboxylic acid] | 100% | 83.5% | 0.344 µM
N#Cc1ccc(Oc2ccc(-c3nc4cccc(C(=O)O)c4[nH]3)cc2)cc1 [I77, 2-[4-(4-Cyano-phenoxy)-phenyl]-3H-benzoimidazole-4-carboxylic acid] | 34.6% | 11.5% | 
Cc1cc(C(=O)O)c2[nH]c(-c3ccc(Oc4ccc(C#N)cc4)cc3)nc2c1 [I78, 2-[4-(4-Cyano-phenoxy)-phenyl]-6-methyl-3H-benzoimidazole-4-carboxylic acid] | 58.5% | 22.2% | 
O=C(O)c1cccc2[nH]c(-c3ccc(N4CCCCCC4=O)cc3)nc12 [I81, 2-[4-(2-Oxo-azepan-1-yl)-phenyl]-1H-benzoimidazole-4-carboxylic acid] | 17.9% | 6.7% | 
Cc1cc(C(=O)O)c2nc(-c3c(F)c(F)c(-n4c(C)ccc4C)c(F)c3F)[nH]c2c1 [I82, 2-[4-(2,5-Dimethyl-pyrrol-1-yl)-2,3,5,6-tetrafluoro-phenyl]-6-methyl-1H-benzoimidazole-4-carboxylic acid] | 111% | 106% | 0.0056 µM
Cc1cc(C(=O)O)c2nc(-c3c(F)c(F)c(-c4ccc(CN5CCCCC5)cc4)c(F)c3F)[nH]c2c1 [I83, 6-Methyl-2-(2,3,5,6-tetrafluoro-4′-piperidin-1-ylmethyl-biphenyl-4-yl)-1H-benzoimidazole-4-carboxylic acid] | 111% | 93% | 0.078 µM
Cc1cc(C(=O)O)c2nc(-c3c(F)c(F)c(-c4ccc(NC(=O)C5CCCN5)cc4)c(F)c3F)[nH]c2c1 (stereo not shown) [I85] | 104% | 93.4% | 0.056 µM
Cc1cc(C(=O)O)c2nc(-c3c(F)c(F)c(-c4cccc(NC(=O)C5CCCN5)c4)c(F)c3F)[nH]c2c1 (stereo not shown) [I86] | 93.1% | 70.8% | 0.815 µM
Cc1cc(C(=O)O)c2nc(-c3ccc(-c4ccc(OCCCN5CCOCC5)cc4)cc3)[nH]c2c1 [I87] | 74.1% | 35.7% | 3.02 µM
Cc1cc(C(=O)O)c2nc(-c3ccc(-c4ccc(OCCCN5CCCCC5)cc4)cc3)[nH]c2c1 [I88] | 82.9% | 40.3% | 1.63 µM
Cc1cc(C(=O)O)c2nc(-c3ccc(-c4ccc(NC(=O)[C@@H]5CCCN5)cc4)cc3)[nH]c2c1 [I89] | 94.1% | 52% | 
Cc1cc(C(=O)O)c2nc(-c3ccc(-c4ccc(NC(=O)C5CCNCC5)cc4)cc3)[nH]c2c1 [I90] | 78.8% | 44.5% | 3.69 µM

SMILES | inhibition at 10 µM (DHODH) | inhibition at 1 µM (Jurkat cells) | IC50 (DHODH)
Cc1cc(C(=O)O)c2[nH]c(-c3ccc(-c4ccc(O)c(O)c4)cc3)nc2c1 [I91] | 94.2% | 62.3% | 0.645 µM
Cc1cc(C(=O)O)c2nc(-c3ccc(-c4ccc(C(=O)NC5CCNCC5)cc4)cc3)[nH]c2c1 [I92] | 59.7% | 16.3% | 6.64 µM
Cc1cc(C(=O)O)c2nc(-c3ccc(-c4ccccc4)cc3)n(CCO)c2c1 [I93] | 78.8% | 29% | 4.79 µM
Cc1cc(C(=O)O)c2c(c1)nc(-c1c(F)c(F)c(-c3ccc(O)cc3)c(F)c1F)n2CCO [I94] | 89.7% | 82.5% | 0.078 µM
Cc1cc(C(=O)O)c2[nH]c(-c3ccc(-c4ccc(OCCC5CCNCC5)cc4)cc3)nc2c1 [I95] | 58.7% | 14.3% | 6.01 µM
Cc1cc(C(=O)O)c2[nH]c(-c3c(F)c(F)c(-c4ccc(O)cc4)c(F)c3F)nc2c1 [I96] | 98.4% | 102% | 0.016 µM
Cc1cc(C(=O)O)c2c(c1)nc(-c1ccc(-c3ccc(O)cc3)cc1)n2CCO [I97] | 80% | 37.6% | 2.15 µM
CONC(=O)c1cc(C)cc2nc(-c3c(F)c(F)c(-c4ccccc4)c(F)c3F)[nH]c12 [I98] | 66.2% | 30.1% | 2.2 µM
Cc1cc(C(=O)O)c2[nH]c(-c3ccc(-c4ccc(OCCO)cc4)cc3)nc2c1 [I99] | 71% | 27.7% | 3.1 µM
Cc1cc(C(=O)O)c2[nH]c(-c3c(F)c(F)c(-c4ccccc4OCc4ccccc4)c(F)c3F)nc2c1 [I100] | 104% | 96.2% | 0.06 µM
O=C(O)c1cccc2nc(-c3c(F)c(F)c(-c4ccccc4OCc4ccccc4)c(F)c3F)[nH]c12 [I101] | 82.2% | 60.1% | 0.707 µM
Cc1cc(C(N)=O)c2nc(-c3c(F)c(F)c(-c4ccccc4)c(F)c3F)[nH]c2c1 [I102] | 87.9% | 64.2% | 0.446 µM
Cc1cc(-c2nnn[nH]2)c2nc(-c3c(F)c(F)c(-c4ccccc4)c(F)c3F)[nH]c2c1 [I103] | 107% | 64.2% | 1.2 µM
Cc1cc(C(=O)O)c2[nH]c(-c3c(F)c(F)c(-c4cccc(O)c4)c(F)c3F)nc2c1 [I104] | 104% | 110% | 0.0135 µM
Cc1cc(C(=O)O)c2[nH]c(-c3c(F)c(F)c(-c4cccc(OCc5ccccc5)c4)c(F)c3F)nc2c1 [I105] | 95.8% | 91.9% | 0.0136 µM
Cc1cc(C(=O)O)c2[nH]c(-c3ccc(-c4ccccc4OCc4ccccc4)cc3)nc2c1 [I106] | 91% | 48% | 1.5 µM
O=C(O)c1cccc2nc(-c3c(F)c(F)c(-c4cccc(OCc5ccccc5)c4)c(F)c3F)[nH]c12 [I107] | 108% | 99% | 0.026 µM
Nc1nnc(-c2cccc3[nH]c(-c4ccc(-c5ccccc5)cc4)nc23)s1 [I108] | 53% | 11% | 15.9 µM
